Experimental data from ChEMBL document CHEMBL5352465, “Small molecules containing chalcogen elements (S, Se, Te) as new warhead to fight neglected tropical diseases” (Eur J Med Chem, 2023).

Tests used:
[1] = system: Trypanosoma cruzi; assay: Antitrypanosomal activity against Trypanosoma cruzi arequipa strain amastigotes assessed as parasite growth inhibition incubated for 48 hrs by resazurin staining based analysis; type: functional, organism-based
[2] = system: Trypanosoma cruzi; assay: Antitrypanosomal activity against Trypanosoma cruzi arequipa strain epimastigotes assessed as parasite growth inhibition incubated for 48 hrs by resazurin staining based analysis; type: functional, organism-based
[3] = system: Trypanosoma cruzi; assay: Antitrypanosomal activity against Trypanosoma cruzi arequipa strain trypomastigotes assessed as parasite growth inhibition incubated for 48 hrs by resazurin staining based analysis; type: functional, organism-based
[4] = system: Trypanosoma cruzi; assay: Antitrypanosomal activity against Trypanosoma cruzi epimastigote assessed as parasite growth inhibition; type: functional, organism-based
[5] = system: Trypanosoma cruzi; assay: Antitrypanosomal activity against bloodstream Trypanosoma cruzi INC-5 strain trypomastigotes assessed as parasite growth inhibition incubated for 24 hrs by microscopic analysis; type: functional
[6] = system: Trypanosoma cruzi; assay: Antitrypanosomal activity against bloodstream Trypanosoma cruzi NINOA strain trypomastigotes assessed as parasite growth inhibition incubated for 24 hrs by microscopic analysis; type: functional
[7] = system: Leishmania infantum; assay: Antileishmanial activity against Leishmania infantum amastigotes assessed as inhibition of parasite growth; type: functional, organism-based

| SMILES | IC50 [1] | IC50 [3] | IC50 [7] | further results |
| --- | --- | --- | --- | --- |
| FC(F)(F)c1ccc(C[Se][Se]Cc2ccc(C(F)(F)F)cc2)cc1 | 800 nM | 1500 nM | – | IC50 [2]: 1900 nM |
| NC(=S)N/C=N/c1c(C(F)(F)F)nn(-c2ccccc2)c1-c1ccc(Br)cc1 | – | – | – | IC50 [4]: 30300 nM |
| O=C(Nc1ccc([Se][Se]c2ccc(NC(=O)c3ccc([N+](=O)[O-])cc3)cc2)cc1)c1ccc([N+](=O)[O-])cc1 | 49300 nM | 35800 nM | – | – |
| O=C(Nc1ccc([Se][Se]c2ccc(NC(=O)c3cccs3)cc2)cc1)c1cccs1 | 15400 nM | 12700 nM | – | – |
| Fc1ccc(CSc2nc3ccccc3s2)cc1 | – | – | – | LC50 [5]: > 350000 nM; LC50 [6]: > 350000 nM |
| CCOP(=O)(Nc1ccc([Se][Se]c2ccc(NP(=O)(OCC)OCC)cc2)cc1)OCC | – | – | 170 nM | – |
| O=C(Nc1ccc([Se][Se]c2ccc(NC(=O)c3ccc(C(F)(F)F)cc3)cc2)cc1)c1ccc(C(F)(F)F)cc1 | 5400 nM | 2400 nM | – | – |
| Cc1ccc(S(=O)(=O)Nc2ccc([Se][Se]c3ccc(NS(=O)(=O)c4ccc(C)cc4)cc3)cc2)cc1 | 4200 nM | 3700 nM | – | IC50 [2]: 5100 nM |
| N#C[Se]Cc1ccccc1[N+](=O)[O-] | 500 nM | 1300 nM | – | IC50 [2]: 900 nM |
| NC(=S)N/C=N/c1c(C(F)(F)F)nn(-c2ccccc2)c1-c1ccc([N+](=O)[O-])cc1 | – | – | – | IC50 [4]: 45700 nM |
| O=S(=O)(Nc1ccc([Se][Se]c2ccc(NS(=O)(=O)c3ccc(C(F)(F)F)cc3)cc2)cc1)c1ccc(C(F)(F)F)cc1 | 2300 nM | 2000 nM | – | IC50 [2]: 2700 nM |
| COc1ccc([Te]Cc2ccc(S(N)(=O)=O)cc2)cc1 | – | – | 6140 nM | – |
| c1ccc2c(c1)nnn2C[Se][Se]Cn1nnc2ccccc21 | – | – | 450 nM | – |
| Cc1ccc(C[Se]C#N)cc1 | 3100 nM | 4500 nM | – | IC50 [2]: 3000 nM |
| COP(=O)(Nc1ccc([Se][Se]c2ccc(NP(=O)(OC)OC)cc2)cc1)OC | – | – | 330 nM | – |
| NS(=O)(=O)c1ccc(-c2cnc(C[Se]c3ccccc3)[se]2)cc1 | – | – | 4110 nM | – |

| SMILES | IC50 [1] | IC50 [3] | IC50 [7] | further results |
| --- | --- | --- | --- | --- |
| Cc1ccc([Te]Cc2ncc(-c3ccc(S(N)(=O)=O)cc3)[se]2)cc1 | – | – | 340 nM | – |
| Fc1cccc(CSc2nc3ccccc3s2)c1 | – | – | – | LC50 [5]: > 350000 nM; LC50 [6]: > 350000 nM |
| NS(=O)(=O)c1ccc(C[Te]c2ccc3ccccc3c2)cc1 | – | – | 5830 nM | – |
| O=C(Nc1ccc([Se][Se]c2ccc(NC(=O)c3ccco3)cc2)cc1)c1ccco1 | 3200 nM | 1800 nM | – | – |
| NC(=S)N/C=N/c1c(C(F)(F)F)nn(-c2ccccc2)c1-c1ccc(F)cc1 | – | – | – | IC50 [4]: 69300 nM |
| NS(=O)(=O)c1ccc(NC(=[Se])NC(=O)c2ccc3c(c2)OCO3)cc1 | – | – | 5280 nM | – |
| CCOP(=S)(Nc1ccc([Se][Se]c2ccc(NP(=S)(OCC)OCC)cc2)cc1)OCC | – | – | 790 nM | – |
| COc1ccc(-c2c(/N=C/NC(N)=S)c(C(F)(F)F)nn2-c2ccccc2)cc1 | – | – | – | IC50 [4]: 29700 nM |
| O=C1c2ccccc2C(=O)c2cc(C[Se][Se]Cc3ccc4c(c3)C(=O)c3ccccc3C4=O)ccc21 | – | – | 680 nM | – |
| NC(=S)N/C=N/c1c(C(F)(F)F)nn(-c2ccccc2)c1-c1ccc(Cl)cc1 | – | – | – | IC50 [4]: 49200 nM |
| N#C[Se]Cc1cccc(C#N)c1 | 800 nM | 900 nM | – | IC50 [2]: 1000 nM |
| NS(=O)(=O)c1ccc(NC(=[Se])NC(=O)c2ccccc2)cc1 | – | – | 5230 nM | – |
| NC(=S)N/C=N/c1c(C(F)(F)F)nn(-c2ccccc2)c1-c1ccccc1 | – | – | – | IC50 [4]: 83100 nM |
| N#Cc1ccc(C[Se][Se]Cc2ccc(C#N)cc2)cc1 | 500 nM | 900 nM | – | IC50 [2]: 1300 nM |
| O=P(Nc1ccc([Se][Se]c2ccc(NP(=O)(Oc3ccccc3)Oc3ccccc3)cc2)cc1)(Oc1ccccc1)Oc1ccccc1 | – | – | 14300 nM | – |
| CSc1ccc(C[Se][Se]Cc2ccc(SC)cc2)cc1 | 1200 nM | 1700 nM | – | IC50 [2]: 1800 nM |
